Experimental data: patent publication US10081632B2, “Substituted tetrahydropyrido[3′,2′:4,5]pyrrolo[1,2-α]pyrazine-2-carboxamides as RSK inhibitors” (Phoenix Molecular Designs, priority 2016, dated 2018)

Legend:
4T1 cells [1] = assay: Monolayer growth inhibition, Alamar blue assay; assay type: cell-based; details: Mus musculus; 4T1 (TNBC), 5 days, single dose on day 1
From the text: (§1) In all instances a single dose was given on day 1 of the experiment.

HCC1143 cells [2] = assay: Monolayer growth inhibition, Alamar blue assay; assay type: cell-based; details: Homo sapiens; HCC1143 (TNBC), 5 days, single dose on day 1
From the text: as §1

HCC1937 cells [3] = assay: Monolayer growth inhibition, Alamar blue assay; assay type: cell-based; details: Homo sapiens; HCC1937 (TNBC, BRCA Mutant), 5 days, single dose on day 1
From the text: as §1

JIMT-1 cells [4] = assay: Monolayer growth inhibition, Alamar blue assay; assay type: cell-based; details: Homo sapiens; JIMT-1 (HER2), 5 days, single dose on day 1
From the text: as §1

MDA-MB-231 cells [5] = assay: Monolayer growth inhibition, Alamar blue assay; assay type: cell-based; details: Homo sapiens; MDA-MB-231 (TNBC), 5 days, single dose on day 1
From the text: as §1

MDA-MB-435 cells [6] = assay: Monolayer growth inhibition, Alamar blue assay; assay type: cell-based; details: Homo sapiens; MDA-MB-435 (Melanoma), 5 days, single dose on day 1
From the text: as §1

MDA-MB-468 cells [7] = assay: Monolayer growth inhibition, Alamar blue assay; assay type: cell-based; details: Homo sapiens; MDA-MB-468 (TNBC), 5 days, single dose on day 1
From the text: as §1

PC3 cells [8] = assay: Monolayer growth inhibition, Alamar blue assay; assay type: cell-based; details: Homo sapiens, PC-3; PC3 (Prostate), 5 days, single dose on day 1
From the text: as §1

SUM149 cells [9] = assay: Monolayer growth inhibition, Alamar blue assay; assay type: cell-based; details: Homo sapiens; SUM149 (TNBC, BRCA Mutant), 5 days, single dose on day 1
From the text: as §1

SUM149-PTXR cells [10] = assay: Monolayer growth inhibition, Alamar blue assay; assay type: cell-based, Human; details: Homo sapiens; SUM149-PTXR (TNBC, BRCA Mutant), 5 days, single dose on day 1
From the text: as §1

T47D cells [11] = assay: Monolayer growth inhibition, Alamar blue assay; assay type: cell-based, Human; details: Homo sapiens; T47D (ER/PR), 5 days, single dose on day 1
From the text: as §1

All cell lines [12] = assay: Monolayer growth inhibition, Alamar blue assay, range over all cell lines; assay type: cell-based; details: 120 h; range of IC50 over all cell lines of the table; read-out: IC50 Values - Alamar Blue (5 Days), Range, All
From the text: as §1

HCC1937 cells [13] = assay: Monolayer growth inhibition, crystal violet assay; assay type: cell-based; details: Homo sapiens; HCC1937 (TNBC, BRCA Mutant), 5 days, single dose on day 1
From the text: (§2) In all instances a single dose was given on day 1 of the experiment. […] Complete (100%) growth suppression was achievable with several of the compounds in multiple different cell lines.

JIMT-1 cells [14] = assay: Monolayer growth inhibition, crystal violet assay; assay type: cell-based; details: Homo sapiens; JIMT-1 (HER2), 5 days, single dose on day 1
From the text: as §2

MDA-MB-468 cells [15] = assay: Monolayer growth inhibition, crystal violet assay; assay type: cell-based; details: Homo sapiens; MDA-MB-468 (TNBC), 5 days, single dose on day 1
From the text: as §2

T47D cells [16] = assay: Monolayer growth inhibition, crystal violet assay; assay type: cell-based; details: Homo sapiens; T47D (ER/PR), 5 days, single dose on day 1
From the text: as §2

4T1 cells [17] = assay: Monolayer growth inhibition, crystal violet assay; assay type: cell-based; details: Mus musculus; 4T1 (TNBC), 5 days, single dose on day 1
From the text: as §1

HCC1143 cells [18] = assay: Monolayer growth inhibition, crystal violet assay; assay type: cell-based; details: Homo sapiens; HCC1143 (TNBC), 5 days, single dose on day 1
From the text: as §1

MDA-MB-231 cells [19] = assay: Monolayer growth inhibition, crystal violet assay; assay type: cell-based; details: Homo sapiens; MDA-MB-231 (TNBC), 5 days, single dose on day 1
From the text: as §1

MDA-MB-435 cells [20] = assay: Monolayer growth inhibition, crystal violet assay; assay type: cell-based; details: Homo sapiens; MDA-MB-435 (Melanoma), 5 days, single dose on day 1
From the text: as §1

PC3 cells [21] = assay: Monolayer growth inhibition, crystal violet assay; assay type: cell-based; details: Homo sapiens, PC-3; PC3 (Prostate), 5 days, single dose on day 1
From the text: as §1

SUM149 cells [22] = assay: Monolayer growth inhibition, crystal violet assay; assay type: cell-based; details: Homo sapiens; SUM149 (TNBC, BRCA Mutant), 5 days, single dose on day 1
From the text: as §1

SUM149-PTXR cells [23] = assay: Monolayer growth inhibition, crystal violet assay; assay type: cell-based; details: Homo sapiens; SUM149-PTXR (TNBC, BRCA Mutant), 5 days, single dose on day 1
From the text: as §1

All cell lines [24] = assay: Monolayer growth inhibition, crystal violet assay, range over all cell lines; assay type: cell-based; details: 120 h; range of IC50 over all cell lines of the table; read-out: IC50 Values - Crystal Violet (5 Days), Range, All
From the text: as §2

MDA-MB-231 cells [25] = assay: Soft agar growth inhibition assay; assay type: cell-based; details: Homo sapiens
MDA-MB-468 cells [26] = assay: Soft agar growth inhibition assay; assay type: cell-based, Human; details: Homo sapiens; MDA-MB-468 (TNBC), 14-22 days
4T1 cells [27] = assay: Soft agar growth inhibition assay; assay type: cell-based; details: Mus musculus
Protocol: Two agar (Alfa Aesar) solutions (0.8% w/v and 0.4% w/v) were prepared in ultrapure water. The 0.8% agar solution was mixed in equal volumes with 2× media previously prepared from powder (Life Technologies) following the manufacturer's instructions and filter sterilized. The 0.8% agar and media solution was added to 24 well plates (Mandel Scientific) at 500 μl per well. The plates were placed in a humidified incubator at 37° C. with 5% CO2. Next, the 0.4% agar solution was mixed in equal volumes with 2× media. Breast cancer cell lines were added to this solution to achieve a final concentration of 2×10^4 cells per well and […] was added to each well on top of the bottom agar and media layer. […] The plates were returned to the incubator for 10-32 days, with a re-dosing of compounds or DMSO every 7 days. After 10-32 days, colonies were counted in 3 different fields of view for each well.
Representative compounds described herein were tested in the soft agar growth inhibition assay against the 4T1 breast cancer cell line.

MDA-MB-231 cells [28] = assay: Immuno-oncology gene expression (HLA-DRA, CIITA, CD274 mRNA); assay type: cell-based, Human; details: Compound 16 2 or 4 uM, Compound 18 1, 2, or 4 uM
From the text: A key feature of cancer is low immunogenicity. This can occur by several mechanisms that allow the cells to escape immune recognition. […] HLA-DRA is a member of MHC-II genes and CIITA is the master regulator of MHC II transcription. Thus it was surprising that CIITA, which would be expected to regulate MHC II gene expression, was not altered by RSK inhibition. […] HLA-DRA is important for immune recognition while PD-L1 is involved in immune checkpoints.

CD34+ cells = assay: Colony forming unit hematopoietic stem cell assay; assay type: cell-based, human
Protocol: The hematopoietic colony forming cell assay was conducted based on a protocol outlined by StemCell Technologies. […] Following the addition of CD34^+ cells isolated from human cord blood or peripheral blood (StemCell Technologies) at a final concentration of 5×10^2 cells per dish, the tubes were vortexed and allowed to stand for 5 minutes at room temperature. Next, the MethoCult mixtures were dispensed into 35 mm dishes (Corning Incorporated) through blunt end needles (StemCell Technologies) and 5 ml syringes (BD Biosciences) at a volume of 1.1 ml per dish. The medium was evenly distributed across the surface of each dish by gentle tilting and rotation. The dishes were then placed in a 100 mm culture dish (Grenier Bio-One) containing additional 35 mm dishes with sterile water to maintain humidity. […] The number of myeloid and erythroid derived colonies in both the treated and control dishes were counted and compared.

[29] = tested on: phosphorylated Y-box binding protein-1 (YB-1) at serine 102 (P-YB-1S102); assay: Immunoblotting of cell signalling, loss of P-YB-1 in MDA-MB-231 cells; details: MDA-MB-231 cells, 0.01-1 uM, 96 hrs
Protocol: Following desired experimental conditions, breast cancer cell lines grown and treated in 6 well plates or 100 mm culture dishes (Grenier Bio-One) were placed on ice and the supernatant from each well was removed and the cells were washed in cold PBS. Following removal of PBS, cells were exposed to radioimmunoprecipitation assay (RIPA) buffer (50 mM Tris-HCl (pH 8), 150 mM NaCl, 1% NP-40, 0.5% sodium deoxycholate, 0.1% SDS; Fisher Scientific) supplemented with 1% phosphatase inhibitor (Fisher Scientific) and 1% protease inhibitor (Fisher Scientific) for 10 minutes. Samples were transferred to eppendorf tubes, vortexed and then centrifuged at 14 000 rpm for 10 minutes. Supernatants were collected as whole cell lysates.
To begin, the protein content of the lysates was measured using the Bicinchoninic Acid (BCA) Protein Assay Kit (Pierce), which included a protein standard curve generated with bovine serum albumin. Appropriate volumes of samples and loading buffer (50 mM Tris-HCl (pH 6.8), 2% SDS, 10% glycerol, 1% j-mercaptoethanol, 12.5 mM EDTA, 0.02% bromophenol blue) were mixed, ensuring that equal amounts of protein were loaded. For the majority of experiments in this study, 30 μg of protein per well was loaded. Samples were then resolved on SDS-PAGE (polyacrylamide gel electrophoresis) using various percentages of acrylamide gels (8%-12%), depending on the proteins of interest. SDS-PAGE was run in SDS running buffer (25 mM Tris, 192 mM glycine, 0.1% SDS) and then transferred to nitrocellulose membranes (Bio-Rad) in transfer buffer (48 mM Tris, 39 mM glycine, 20% (v/v) methanol) at 100 volts for 90 minutes at room temperature. Immunoblots were then blocked in 5% skim milk in tris-buffered saline with 0.1% Tween-20 (TBS-T; 50 mM Tris-HCl, pH 7.5, 150 mM NaCl, 0.1% (v/v) Tween-20 (Fisher Scientific)) for 1 to 2 hours. Immunoblots were then incubated with selected primary antibodies diluted in TBS-T with 0.1% gelatin (Bio-Rad) and 0.05% sodium azide (Alfa Aesar) overnight. Following washes with TBT-T 4 times for 8 to 10 minutes, immunoblots were incubated with appropriate secondary antibodies conjugated to horseradish peroxidise (Cell Signalling Technology) diluted in TBS-T plus 5% skim milk at a ratio of 1:5000 for 2 hours at room temperature. After an additional round of washes in TBS-T, immunoblots were exposed to combined enhanced chemiluminescence (ECL) reagents (Fisher Scientific) for 1 minute and developed using ChemiDoc MP Imaging System (Bio-Rad). For certain immunoblots, bands of proteins of interest were scanned and band intensity ratios were determined by densitometric analysis (ImageJ). […] Total YB-1 was used as a loading control (1:5000 Abcam). […] To assess whether cells are actively undergoing cell death, the activity of poly ADP ribose polymerase (PARP) (1:1000 CST) was also measured using the immunoblotting method.

IC50 (4T1 cells [1]): 5.4 ± 0.9 µM | IC50 (HCC1143 cells [2]): 7 ± 3 µM | IC50 (HCC1937 cells [3]): 17.4 ± 3 µM | IC50 (MDA-MB-231 cells [5]): 8.7 ± 1.8 µM | IC50 (MDA-MB-435 cells [6]): 0.9 ± 0.5 µM | IC50 (MDA-MB-468 cells [7]): 2.7 ± 0.5 µM | IC50 (PC3 cells [8]): 6.6 ± 2.3 µM | IC50 (T47D cells [11]): 4.7 ± 1.7 µM | IC50 (HCC1937 cells [13]): 12 ± 5.3 µM | IC50 (MDA-MB-468 cells [15]): 1.9 ± 0.3 µM | IC50 (T47D cells [16]): 3.8 ± 0.7 µM | IC50 (4T1 cells [17]): 4.5 ± 0.8 µM | IC50 (HCC1143 cells [18]): 5 ± 1.1 µM | IC50 (MDA-MB-231 cells [19]): 2.7 ± 1.3 µM | IC50 (MDA-MB-435 cells [20]): 1.2 ± 0.6 µM | IC50 (PC3 cells [21]): 3.7 ± 1.3 µM | IC50 (MDA-MB-231 cells [25]; MDA-MB-231, growth in soft agar (SA), read-out: MDA-MB-231 IC50 (SA)): 0.2 µM | IC50 (MDA-MB-231 cells [25]; MDA-MB-231 (TNBC), 14-22 days, read-out: IC50 Values - Soft Agar (14-22 Days)): 0.2 ± 0.1 µM | IC50 (MDA-MB-468 cells [26]): 1.1 ± 0.3 µM | IC50 (4T1 cells [27]; 240 h, 4T1, 10 days, read-out: IC50 Values, 10 Days, Soft Agar): 3.3 µM | IC50 (4T1 cells [27]; 4T1 (TNBC), 14-22 days, read-out: IC50 Values - Soft Agar (14-22 Days)): 3.5 ± 0.3 µM | IC50 (CD34+ cells; Homo sapiens, Hematopoietic stem cell, CD34+ cells from peripheral blood, read-out: CD34+ (PB) IC50): > 20 µM
Compound: C[C@@H]1CNC(=O)c2cc3ccc(C(=O)Nc4cnn(Cc5cccc(N)c5)c4)nc3n21 [Compound 16, (R)—N-(1-(3-aminobenzyl)-1H-pyrazol-4-yl)-9-methyl-6-oxo-6,7,8,9-tetrahydropyrido[3′,2′:4,5]pyrrolo[1,2-a]pyrazine-2-carboxamide]
IC50 (JIMT-1 cells [4]): 16.3 ± 1 µM | IC50 (SUM149 cells [9]): 3.4 ± 1.8 µM | IC50 (SUM149-PTXR cells [10]): 2.5 ± 0.4 µM | IC50 (All cell lines [12]): 0.9 to 17.4 µM | IC50 (JIMT-1 cells [14]): 13.3 ± 2.4 µM | IC50 (SUM149 cells [22]): 2.8 ± 0.9 µM | IC50 (SUM149-PTXR cells [23]): 3.5 ± 1.2 µM | IC50 (All cell lines [24]): 1.2 to 13.3 µM | CD274 (gene encoding PD-L1) levels (MDA-MB-231 cells [28]): reduced levels of CD274 | HLA-DRA mRNA (MDA-MB-231 cells [28]): elevated levels of HLA-DRA mRNA | mRNA expression of CIITA (MDA-MB-231 cells [28]): little effect | Therapeutic Window (CD34+ cells; ratio IC50 against CD34+ cells and MDA-MB-231 cells (SA)): >100X | Loss of P-YB-1 [29]: dose dependent loss of P-YB-1
